Values joined by “and” are separate entries in the source; they are usually repeats but may differ in a detail not shown here. Equal values may be shown once.
Tests used:
[1] = test system: MT4; assay: Cytotoxicity against human MT4 cells assessed as reduction in cell viability by MTT assay; assay type: functional
[2] = test system: Human immunodeficiency virus 1; assay: Antiviral activity against wild type HIV-1 infected in human MT4 cells assessed as inhibition of viral infection by MTT assay; assay type: functional, organism-based
[3] = test system: Human immunodeficiency virus 1; assay: Antiviral activity against […] HIV-1 harboring T174I mutant infected in human MT4 cells assessed as inhibition of viral infection by MTT assay; assay type: functional, organism-based
[4] = Metabolic stability in rat liver microsomes; assay type: ADME, Microsome
[5] = Oral bioavailability in rat at 1 mg/kg; assay type: ADME, organism-based; details: in vivo
[6] = Elimination half life in rat at 0.5 mg/kg, iv; assay type: ADME, organism-based; details: in vivo, read-out: beta t1/2 (converted)
[7] = AUC in rat at 0.5 mg/kg, iv; assay type: ADME, organism-based; design: dose 0.5 mg/kg, route iv; details: in vivo
[8] = Metabolic stability in human liver microsomes; assay type: ADME, Microsome
[9] = Human immunodeficiency virus 1, MT4

Row | Structure (SMILES) | CC50 ([1]; Homo sapiens, MT4) | EC50 [2, 9] | EC50 [3, 9] | other results
1 | Cc1ccc(-c2c(C)c3c(c(C)c2[C@H](OC(C)(C)C)C(=O)O)N(C)S(=O)(=O)c2ccccc2-3)cc1 | 19000 nM | 76 nM |  | 
2 | Cc1ccc(-c2c(C)c3c(c(C)c2[C@H](OC(C)(C)C)C(=O)O)N(S(C)(=O)=O)Cc2ccc(C)cc2-3)cc1 | 13000 nM | 12 nM | 930 nM | 
3 | Cc1c(-c2ccc3c(c2)CCCO3)c([C@H](OC(C)(C)C)C(=O)O)c(C)c2c1-c1c(F)cccc1CN2S(C)(=O)=O | 29000 nM | 6.2 nM | 170 nM | 
4 | Cc1ccc(-c2c(C)c3c(c(C)c2[C@H](OC(C)(C)C)C(=O)O)N(S(C)(=O)=O)Cc2cccnc2-3)cc1 | 70000 nM | 23 nM | 3200 nM | 
5 | Cc1ccc(-c2c(C)c3c(c(C)c2[C@H](OC(C)(C)C)C(=O)O)N(S(C)(=O)=O)Cc2ccc(F)cc2-3)cc1 | 15000 nM | 11 nM | 1200 nM | 
6 | Cc1ccc(-c2c(C)c3c(c(C)c2[C@H](OC(C)(C)C)C(=O)O)N(S(C)(=O)=O)Cc2cccc(Cl)c2-3)cc1 | 16000 nM | 15 nM | 540 nM | 
7 | Cc1ccc(-c2c(C)c3c(c(C)c2[C@H](OC(C)(C)C)C(=O)O)N(S(C)(=O)=O)Cc2ncccc2-3)cc1 | 61000 nM | 58 nM | > 5000 nM | 
8 | Cc1ccc(-c2c([C@H](OC(C)(C)C)C(=O)O)c(C)c3[nH]c4ccccc4c3c2C)cc1 | 13000 nM | 310 nM |  | 
9 | Cc1ccc(-c2c(C)c3c(c(C)c2[C@H](OC(C)(C)C)C(=O)O)N(S(C)(=O)=O)Cc2c(F)cccc2-3)cc1 | 24000 nM | 10 nM | 510 nM | 
10 | Cc1ccc(-c2c(C)c3c(c(C)c2[C@H](OC(C)(C)C)C(=O)O)N(S(C)(=O)=O)Cc2cnccc2-3)cc1 | 65000 nM | 65 nM | > 5000 nM | 
11 | Cc1ccc(-c2c(C)c3c(c(C)c2[C@H](OC(C)(C)C)C(=O)O)N(S(C)(=O)=O)Cc2cc(C#N)ccc2-3)cc1 | 35000 nM | 7.3 nM | 720 nM | 
12 | Cc1ccc(-c2c([C@H](OC(C)(C)C)C(=O)O)c(C)c3c(c2C)c2ccccc2c(=O)n3C)cc1 | 25000 nM | 730 nM |  | 
13 | Cc1ccc(-c2c(C)cc(N(Cc3ccccc3)S(C)(=O)=O)c(C)c2[C@H](OC(C)(C)C)C(=O)O)cc1 | 14000 nM | 56 nM |  | 
14 | Cc1ccc(-c2c(C)c3c(c(C)c2[C@H](OC(C)(C)C)C(=O)O)N(S(C)(=O)=O)Cc2cccc(F)c2-3)c(C)c1 | 18000 nM |  | 1100 nM | CC50 [1]: 11000 nM; EC50 ([2]; mt4): 3.7 nM and 9.5 nM; EC50 ([3]; mt4): 1500 nM
15 | Cc1ccc(-c2c(C)c3c(c(C)c2[C@H](OC(C)(C)C)C(=O)O)N(S(C)(=O)=O)Cc2ccccc2-3)cc1 | 21000 nM | 11 nM | 810 nM | 
16 | COc1ccc(-c2c(C)c3c(c(C)c2[C@H](OC(C)(C)C)C(=O)O)N(S(C)(=O)=O)Cc2cccc(F)c2-3)cc1 | 31000 nM | 6.4 nM | 320 nM | 
17 | Cc1c(-c2ccc(Cl)cc2)c([C@H](OC(C)(C)C)C(=O)O)c(C)c2c1-c1c(F)cccc1CN2S(C)(=O)=O | 16000 nM | 8.6 nM | 340 nM | 

Row | Structure (SMILES) | CC50 ([1]; Homo sapiens, MT4) | EC50 [2, 9] | EC50 [3, 9] | other results
18 | Cc1c(-c2c(C)c3c(c(C)c2[C@H](OC(C)(C)C)C(=O)O)N(S(C)(=O)=O)Cc2cccc(F)c2-3)ccc2c1CCCO2 | 17000 nM |  |  | CC50 [1]: 22000 nM; EC50 ([2]; mt4): 1.9 nM and 6.7 nM; EC50 ([3]; mt4): 48 nM and 420 nM
19 | Cc1ccc(-c2c(C)c3c(c(C)c2[C@H](OC(C)(C)C)C(=O)O)N(S(C)(=O)=O)Cc2cccc(F)c2-3)cc1 | 17000 nM | 5.5 nM | 290 nM | 
20 | Cc1ccc(-c2c(C)c3c(c(C)c2[C@H](OC(C)(C)C)C(=O)O)N(S(C)(=O)=O)Cc2ccncc2-3)cc1 | 25000 nM | 20 nM | > 5000 nM | 
21 | Cc1ccc(-c2c(C)c3c(c(C)c2[C@H](OC(C)(C)C)C(=O)O)N(S(C)(=O)=O)Cc2cccc(F)c2-3)c(O)c1 |  |  |  | Stability [4]: 60.7%; bioavailability [5]: 17.8%; half-life [6]: 3.5 h; CC50 [1]: 59000 nM and 14000 nM; EC50 ([2]; mt4): 4.6 nM and 21 nM; AUC [7]: 21.2 ng·h/mL; Stability [8]: 76.3%
22 | Cc1ccc(-c2c(C)c3c(c(C)c2[C@H](OC(C)(C)C)C(=O)O)N(C)Cc2ccccc2-3)cc1 | 8400 nM | 120 nM |  | 
23 | Cc1ccc(-c2c(C)c3c(c(C)c2[C@H](OC(C)(C)C)C(=O)O)N(S(C)(=O)=O)Cc2cc(C)ccc2-3)cc1 | 14000 nM | 4.9 nM | 440 nM | 
24 | CC(=O)N1Cc2ccccc2-c2c(C)c(-c3ccc(C)cc3)c([C@H](OC(C)(C)C)C(=O)O)c(C)c21 | 27000 nM | 30 nM |  | 
25 | Cc1ccc(-c2c(C)c3c(c(C)c2[C@H](OC(C)(C)C)C(=O)O)N(S(C)(=O)=O)Cc2cc(Cl)ccc2-3)cc1 | 13000 nM | 3.9 nM | 330 nM | 
26 | COc1ccc2c(c1)CN(S(C)(=O)=O)c1c(C)c([C@H](OC(C)(C)C)C(=O)O)c(-c3ccc(C)cc3)c(C)c1-2 | 17000 nM | 2.9 nM | 270 nM | 
27 | Cc1ccc(-c2c(C)c3c(c(C)c2[C@H](OC(C)(C)C)C(=O)O)N(S(C)(=O)=O)Cc2c(C)cccc2-3)cc1 | 17000 nM | 8 nM | 670 nM | 
28 | Cc1c(-c2ccc(F)cc2)c([C@H](OC(C)(C)C)C(=O)O)c(C)c2c1-c1c(F)cccc1CN2S(C)(=O)=O | 32000 nM | 12 nM | 860 nM | 
29 | Cc1c(-c2ccc3c(c2)NCCO3)c([C@H](OC(C)(C)C)C(=O)O)c(C)c2c1-c1c(F)cccc1CN2S(C)(=O)=O | 55000 nM | 10 nM | 150 nM | 
30 | Cc1ccc(-c2c(C)c3c(c(C)c2[C@H](OC(C)(C)C)C(=O)O)N(S(C)(=O)=O)Cc2cc(C(F)(F)F)ccc2-3)cc1 | 10000 nM | 3 nM | 460 nM | 
31 | Cc1ccc(-c2c(C)c3c(c(C)c2[C@H](OC(C)(C)C)C(=O)O)N(S(C)(=O)=O)Cc2cccc(C)c2-3)cc1 | 17000 nM | 20 nM | 600 nM | 
32 | Cc1c(-c2ccc3c(c2)NCCC3)c([C@H](OC(C)(C)C)C(=O)O)c(C)c2c1-c1c(F)cccc1CN2S(C)(=O)=O | 30000 nM | 4.3 nM | 99 nM | 
33 | Cc1ccc(-c2c(C)c3c(c(C)c2[C@H](OC(C)(C)C)C(=O)O)N(S(C)(=O)=O)Cc2cc(F)ccc2-3)cc1 | 19000 nM | 5.7 nM | 360 nM | 
34 | Cc1nc2ccccc2c(-c2ccc3c4c(ccnc24)CCO3)c1[C@H](OC(C)(C)C)C(=O)O [BI-224436] | > 50000 nM | 20 nM | > 5000 nM | 
